Structures can show the parent of a compound that is named as a salt. Where two headings read alike, the source gives them in different places.
Test system: LMP1 expression in Kem I cells
Assay: microbe, parasite or virus in culture
Format: cell-based, EBV
Conditions: for fold induction at 2.5 µM / fold induction at 1 µM: human gammaherpesvirus 4, 48 h
[1] = read-out: Average LMP1 Fold Increase, Kem I cells, 2.5 uM, 48 hours, average of replicates 1 and 2
[2] = read-out: Replicate 1-LMP1 Fold Increase, Kem I cells, 2.5 uM, 48 hours, fold change in LMP1 transcript vs vehicle
[3] = read-out: Replicate 2-LMP1 Fold Increase, Kem I cells, 2.5 uM, 48 hours, fold change in LMP1 transcript vs vehicle
[4] = Kem I cells, 2.5 uM, 48 hours, average of replicates 1 and 2
[5] = Kem I cells, 2.5 uM, 48 hours, fold change in LMP1 transcript vs vehicle
[6] = read-out: Average LMP1 Fold Increase, Kem I cells, 1 uM, 48 hours, average of replicates 1 and 2
[7] = read-out: Replicate 1-LMP1 Fold Increase, Kem I cells, 1 uM, 48 hours, fold change in LMP1 transcript vs vehicle
[8] = read-out: Replicate 2-LMP1 Fold Increase, Kem I cells, 1 uM, 48 hours, fold change in LMP1 transcript vs vehicle
[9] = Kem I cells, dose 2.5 uM, 48 hours, LMP1 transcript by in-well qRT-PCR, average of the two replicates
[10] = Kem I cells, dose 2.5 uM, 48 hours, LMP1 transcript by in-well qRT-PCR, screen replicate 1
[11] = Kem I cells, dose 2.5 uM, 48 hours, LMP1 transcript by in-well qRT-PCR, screen replicate 2
[12] = read-out: Average LMP1 Fold Increase, Kem I cells, dose 2.5 uM, 48 hours, LMP1 transcript by in-well qRT-PCR, average of the two replicates
[13] = read-out: Replicate 1-LMP1 Fold Increase, Kem I cells, dose 2.5 uM, 48 hours, LMP1 transcript by in-well qRT-PCR, screen replicate 1
[14] = read-out: Replicate 2-LMP1 Fold Increase, Kem I cells, dose 2.5 uM, 48 hours, LMP1 transcript by in-well qRT-PCR, screen replicate 2

| Molecule | fold induction at 2.5 µM [1] | fold induction at 2.5 µM [2] | fold induction at 2.5 µM [3] | Average LMP1 Fold Increase [4] | Replicate 1-LMP1 Fold Increase [5] | Replicate 2-LMP1 Fold Increase [5] | also measured |
| --- | --- | --- | --- | --- | --- | --- | --- |
| C[C@]12CC[C@@H]3c4ccc(O)cc4C[C@@H](CCCCCCCCC[S+]([O-])CCCC(F)(F)C(F)(F)F)[C@H]3[C@@H]1CC[C@@H]2O (stereo partly drawn) [Fulvestrant] | 0.17 | 0.16 | 0.18 | – | – | – | – |
| O=C(Nc1ccccc1-c1cn2c(CN3CCNCC3)csc2n1)c1cnc2ccccc2n1 [SRT1720] | – | – | – | 0.64 | 0.58 | 0.70 | – |
| CC(C)NCC(O)COc1ccc(COCCOC(C)C)cc1 (stereo not drawn) [Bisoprolol fumarate] | 1.07 | 0.41 | 1.73 | – | – | – | – |
| O=c1[nH]c2ccc(Cl)cc2c(N[C@@H]2CN3CCC2CC3)c1-c1nc2ccccc2[nH]1 [CHIR-124] | – | – | – | 68.46 | 105.57 | 31.35 | – |
| O=C(O)c1cc2cccc([N+](=O)[O-])c2[nH]1 [CRT0044876] | – | – | – | 0.44 | 0.55 | 0.33 | – |
| CC(C)c1cc(-c2n[nH]c(=O)n2-c2ccc3c(ccn3C)c2)c(O)cc1O [Ganetespib] | – | – | – | – | – | – | fold induction at 1 µM [6]: 23.4; fold induction at 1 µM [7]: 8.07; fold induction at 1 µM [8]: 38.8 |
| BAM7 | – | – | – | 0.93 | 0.51 | 1.35 | – |
| CC(C)CCN1c2nc(Nc3cc(F)c(O)c(F)c3)ncc2N(C)C(=O)C1C (stereo not drawn) [BI-D1870] | – | – | – | 0.50 | 0.47 | 0.52 | – |
| O=C1CC[C@@]2(O)[C@H]3Cc4ccc(O)c5c4[C@@]2(CCN3CC2CC2)[C@H]1O5 [Naltrexone HCl] | 0.27 | 0.34 | 0.19 | – | – | – | – |
| CC(C)NCCCn1c(Sc2cc3c(cc2I)OCO3)nc2c(N)ncnc21 [PU-H71] | – | – | – | – | – | – | fold induction at 1 µM [6]: 9.03; fold induction at 1 µM [7]: 15.3; fold induction at 1 µM [8]: 2.79 |
| CN(C)Cc1ccc(-c2nc3cccc4c3n2CCNC4=O)cc1 [AG-14361] | – | – | – | 0.30 | 0.39 | 0.22 | – |
| CN(c1ncccc1CNc1nc(Nc2ccc3c(c2)CC(=O)N3)ncc1C(F)(F)F)S(C)(=O)=O [PF-562271] | – | – | – | 0.50 | 0.81 | 0.19 | – |
| CN[C@H]1CC[C@@H](c2ccc(Cl)c(Cl)c2)c2ccccc21 [Sertraline HCl] | 1.07 | 0.81 | 1.33 | – | – | – | – |
| OC(CNCC(O)C1CCc2cc(F)ccc2O1)C1CCc2cc(F)ccc2O1 (stereo not drawn) [Nebivolol] | 1.16 | 0.83 | 1.49 | – | – | – | – |
| O=C(NNc1nc2cc(F)ccc2n2cccc12)c1cnccn1 [SC144] | – | – | – | 1.51 | 1.00 | 2.02 | – |
| O=C(NCc1ccccc1)c1csc(Nc2ccncn2)n1 [Thiazovivin] | – | – | – | – | – | – | Average LMP1 Fold Increase [9]: 1.05 fold; Replicate 1-LMP1 Fold Increase [10]: 1.05 fold; Replicate 2-LMP1 Fold Increase [11]: 1.04 fold |
| Cl.N[C@@H]1C[C@H]1c1ccccc1 (racemic) [Tranylcypromine (2-PCPA) HCl] | – | – | – | – | – | – | Average LMP1 Fold Increase: 0.33 fold; Replicate 1-LMP1 Fold Increase: 0.22 fold; Replicate 2-LMP1 Fold Increase: 0.45 fold |
| NC(=O)Nc1sc(-c2ccc(F)cc2)cc1C(N)=O [TPCA-1] | – | – | – | – | – | – | Average LMP1 Fold Increase [9]: 0.48 fold; Replicate 1-LMP1 Fold Increase [10]: 0.59 fold; Replicate 2-LMP1 Fold Increase [11]: 0.36 fold |

| Molecule | fold induction at 2.5 µM [1] | fold induction at 2.5 µM [2] | fold induction at 2.5 µM [3] | Average LMP1 Fold Increase [4] | Replicate 1-LMP1 Fold Increase [5] | Replicate 2-LMP1 Fold Increase [5] | also measured |
| --- | --- | --- | --- | --- | --- | --- | --- |
| COc1ccccc1S(=O)(=O)Nc1ccc2c(c1)CN(C)C(=O)N2 [PFI-1 (PF-6405761)] | – | – | – | 0.78 | 0.42 | 1.15 | – |
| Clc1ccccc1CN1CCc2sccc2C1 [Ticlopidine HCl] | – | – | – | – | – | – | fold induction at 2.5 µM [12]: 1.15; fold induction at 2.5 µM [13]: 0.52; fold induction at 2.5 µM [14]: 1.78 |
| Nc1nc(CC(=O)Nc2ccc(CCNC[C@H](O)c3ccccc3)cc2)cs1 [Mirabegron] | 0.75 | 0.74 | 0.76 | – | – | – | – |
| CC(C)n1c(/C=C/C(O)CC(O)CC(=O)O)c(-c2ccc(F)cc2)c2ccccc21 (stereo not drawn) [Fluvastatin Sodium] | 0.94 | 0.84 | 1.04 | – | – | – | – |
| CNC(=O)c1ccccc1Nc1nc(Nc2ccc(N3CCOCC3)cc2OC)ncc1Cl [TAE226 (NVP-TAE226)] | – | – | – | – | – | – | Average LMP1 Fold Increase [9]: 1.35 fold; Replicate 1-LMP1 Fold Increase [10]: 1.38 fold; Replicate 2-LMP1 Fold Increase [11]: 1.31 fold |
| O=C(C[S+]([O-])Cc1ccco1)NC/C=C\COc1cc(CN2CCCCC2)ccn1 (stereo not drawn) [Lafutidine] | 0.85 | 0.94 | 0.76 | – | – | – | – |
| O=C(Nc1cccc(Nc2ncc(Br)c(NCCc3cnc[nH]3)n2)c1)N1CCCC1 [BX-912] | – | – | – | 0.37 | 0.40 | 0.35 | – |
| CC(C)C[C@@H](C(=O)N[C@H](C(=O)OC1CCCC1)c1ccccc1)[C@H](O)C(=O)NO [Tosedostat (CHR2797)] | – | – | – | – | – | – | Average LMP1 Fold Increase [9]: 0.64 fold; Replicate 1-LMP1 Fold Increase [10]: 0.56 fold; Replicate 2-LMP1 Fold Increase [11]: 0.72 fold |
| c1ccc(NCc2ccc(CNc3ccccn3)cc2)nc1 [WZ811] | – | – | – | – | – | – | Average LMP1 Fold Increase [9]: 0.08 fold; Replicate 1-LMP1 Fold Increase [10]: 0.08 fold; Replicate 2-LMP1 Fold Increase [11]: 0.08 fold |
| CC(=O)O[C@]1(C(C)=O)CC[C@H]2[C@@H]3C=C(Cl)C4=CC(=O)[C@@H]5C[C@@H]5[C@]4(C)[C@H]3CC[C@@]21C [Cyproterone Acetate] | 0.26 | 0.27 | 0.24 | – | – | – | – |
| Oc1c2ccccc2c2c3c(cccc13)N=N2 [SP600125] | 0.6 | 0.67 | 0.53 | – | – | – | – |
| Cc1ccc(-c2cc(C(F)(F)F)nn2-c2ccc(S(N)(=O)=O)cc2)cc1 [Celecoxib] | 0.62 | 0.63 | 0.62 | – | – | – | – |
| C=CC(=O)N1CCC[C@@H](n2nc(-c3ccc(Oc4ccccc4)cc3)c3c(N)ncnc32)C1 [Ibrutinib (PCl-32765)] | – | – | – | – | – | – | Average LMP1 Fold Increase: 0.15; Replicate 1-LMP1 Fold Increase: 0.09; Replicate 2-LMP1 Fold Increase: 0.22 |
| Cc1ccc(NC(=O)C2(c3ccc4c(c3)OC(F)(F)O4)CC2)nc1-c1cccc(C(=O)O)c1 [VX-809 (Lumacaftor)] | – | – | – | – | – | – | Average LMP1 Fold Increase [9]: 0.87 fold; Replicate 1-LMP1 Fold Increase [10]: 0.55 fold; Replicate 2-LMP1 Fold Increase [11]: 1.18 fold |
| OCCn1cc(-c2cnc3nnn(Cc4ccc5ncccc5c4)c3n2)cn1 [PF-04217903] | – | – | – | 1.03 | 0.96 | 1.11 | – |
| Cc1c(Cl)cccc1Nc1ccccc1C(=O)O [Tolfenamic Acid] | – | – | – | – | – | – | fold induction at 2.5 µM [12]: 0.15; fold induction at 2.5 µM [13]: 0.11; fold induction at 2.5 µM [14]: 0.2 |
| Nc1nc(Cl)nc2c1ncn2[C@H]1C[C@H](O)[C@@H](CO)O1 [Cladribine] | – | – | – | – | – | – | fold induction at 1 µM [6]: 38.7; fold induction at 1 µM [7]: 71.4; fold induction at 1 µM [8]: 6.02 |
| CC(C)OC(=O)C1=CN(C(=O)c2ccc(F)c(F)c2)CC(C)(C)c2c1[nH]c1ccccc21 [XL335] | – | – | – | – | – | – | fold induction at 2.5 µM [12]: 0.27; fold induction at 2.5 µM [13]: 0.39; fold induction at 2.5 µM [14]: 0.14 |
